Legend:
[1] = tested on: CFPAC-1 (human pancreatic cancer cells); test: Inhibition of cell line proliferation, CCK8; assay type: cell-based; details: CFPAC-1, 68-72 hours, CCK8
Procedure: Experimental operations: PANC-1 and CFPAC-1 cells were prepared in advance, counted, and plated in 96-well cell culture plates at a cell density of 4×10^4 cells/ml (100 μl/well); negative control and blank control wells were set on each plate. After adherent cell culture overnight, the diluted samples to be tested were added at 50 μl/well. The plates were placed in an incubator at 37° C., 5% CO2 and cultured for 68-72 hours. To each well, 15 μl (10% of the liquid volume in a well) of a color developing solution from CCK8 was added; and the plates were incubated at 37° C. for 45-70 minutes and each plate was read at 450 nm on a microplate reader. The data was edited using SoftMax Pro and a 4-P fitting curve was plotted.
(§1) Experimental operations: LNCaP, SK-BR-3, NCI-H226, CFPAC-1 and PANC-1 cells were prepared in advance and counted; with a culture medium (IMDM+10% FBS+1× L-Glutamine+1×P/S), the cells LNCaP, SK-BR-3 and CFPAC-1 were diluted to 4×10^4 cells/ml, NCI-H226 was diluted to 2.0×10^4 cells/ml and PANC-1 was diluted to 3.0×10^4 cells/ml; the diluted cell solution was plated in 96-well plates at 100 μl/well; and negative control and blank control wells were set on each plate. After adherent cell culture overnight, the diluted samples to be tested were added at 50 μl/well. The plates were placed in an incubator at 37° C., 5% CO2 and cultured for 68-72 hours. To each well, 15 μl (10% of the liquid volume in a well) of a color developing solution from CCK8 was added; and the plates were incubated at 37° C. for 45-70 minutes and each plate was read at 450 nm on a microplate reader. The data was edited using SoftMax Pro and a 4-P fitting curve was plotted.
(§2) Experimental Operations: LNCaP, SK-BR-3, MDA-MB-468 and CFPAC-1 cells were prepared in advance and counted; with a culture medium (IMDM+10% FBS+1× L-Glutamine+1×P/S), the cells LNCaP, SK-BR-3, MDA-MB-468 and CFPAC-1 were diluted to 4×10^4 cells/ml; the diluted cell solution was plated in 96-well plates at 100 µl/well; and negative control and blank control wells were set on each plate. After adherent cell culture overnight, the diluted samples to be tested were added at 50 μl/well. The plates were placed in an incubator at 37° C., 5% CO2 and cultured for 68-72 hours. To each well, 15 μl (10% of the liquid volume in a well) of a color developing solution from CCK8 was added; and the plates were incubated at 37° C. for 45-70 minutes and each plate was read at 450 nm on a microplate reader. The data was edited using SoftMax Pro and a 4-P fitting curve was plotted.
as §2, with “Operations: LNCaP, MDA-MB-468, CFPAC-1 and PANC-1” for “Operations: LNCaP, SK-BR-3, MDA-MB-468 and CFPAC-1”, “CFPAC-1 and PANC-1 cells were” for “MDA-MB-468 and CFPAC-1 cells were”, “cells LNCaP, MDA-MB-468 and” for “cells LNCaP, SK-BR-3, MDA-MB-468 and”, “to 4×10^4 cells/ml, and PANC-1 was diluted to 3.0×10^4 cells/ml; the” for “to 4×10^4 cells/ml; the”, “at 100 μl/well; and negative” for “at 100 µl/well; and negative”
Experimental operations: NCI-H226, CFPAC-1 and MDA-MB-468 cells were prepared in advance and counted; MDA-MB-468 and CFPAC-1 cells were plated at a density of 2×10^4 cells/ml (100 μl/well) and NCI-H226 cells were plated at a density of 1×10^4 cells/ml (100 μl/well) in 96-well plates; and negative control and blank control wells were set on each plate. After adherent cell culture overnight, the diluted samples to be tested were added at 50 μl/well. The plates were placed in an incubator at 37° C., 5% CO2 and cultured for 68-72 hours. […]

[2] = tested on: NCI-H226 (human lung cancer cells); test: Inhibition of cell line proliferation, CCK8; assay type: cell-based; details: NCI-H226, 68-72 hours, CCK8
Procedure: as §1
(§3) Experimental operations: NCI-H226, CFPAC-1 and MDA-MB-468 cells were prepared in advance and counted; MDA-MB-468 and CFPAC-1 cells were plated at a density of 2×10^4 cells/ml (100 μl/well) and NCI-H226 cells were plated at a density of 1×10^4 cells/ml (100 μl/well) in 96-well plates; and negative control and blank control wells were set on each plate. After adherent cell culture overnight, the diluted samples to be tested were added at 50 μl/well. The plates were placed in an incubator at 37° C., 5% CO2 and cultured for 68-72 hours. To each well, 15 μl (10% of the liquid volume in a well) of a color developing solution from CCK8 was added; and the plates were incubated at 37° C. for 45-70 minutes and each plate was read at 450 nm on a microplate reader. The data was edited using SoftMax Pro and a 4-P fitting curve was plotted.

[3] = tested on: MDA-MB-468 (human breast cancer cells); test: Inhibition of cell line proliferation, CCK8; assay type: cell-based; details: MDA-MB-468, 68-72 hours, CCK8
Procedure: as §2
as §2, with “Operations: LNCaP, MDA-MB-468, CFPAC-1 and PANC-1” for “Operations: LNCaP, SK-BR-3, MDA-MB-468 and CFPAC-1”, “CFPAC-1 and PANC-1 cells were” for “MDA-MB-468 and CFPAC-1 cells were”, “cells LNCaP, MDA-MB-468 and” for “cells LNCaP, SK-BR-3, MDA-MB-468 and”, “to 4×10^4 cells/ml, and PANC-1 was diluted to 3.0×10^4 cells/ml; the” for “to 4×10^4 cells/ml; the”, “at 100 μl/well; and negative” for “at 100 µl/well; and negative”
as §3

SCLC-21H = test: Tumor growth inhibition of CR19428 in subcutaneous xenograft model (CDX); assay type: in vivo, BALB/c-nude mice
Procedure: (§4) Experimental scheme: The tumor tissue mass were prepared and subcutaneously inoculated into the anterior right flank of BALB/c-nude mice. When the tumor volume expanded to 80-160 mm^3, a randomized grouping was performed, and a model control group and administration groups were set. The mice were administrated from the first day of grouping, wherein the administration dose was adjusted according to the latest weight measurement. The mice were administrated via tail vein injection at an administration volume of 10 μl/g and twice a week for consecutive 3 weeks. After grouping and administration, the effects of tumor growth and treatment on normal behaviors of animals, specifically including the activity of experimental animals, food intake and drinking status, weight gain or loss status, and other abnormal conditions in eyes, hair, etc., were monitored. After grouping and administration, the weight of mice was measured twice a week to calculate the rate of weight change; at the same time, the long diameter and short diameter of the tumor were measured with a vernier caliper, and the tumor volume, relative tumor proliferation rate, tumor volume inhibition rate and other indicators were calculated. The formula of tumor volume is TV=0.5 a×b^2, wherein a is the long diameter of a tumor and b is the short diameter of a tumor.

SPC-A1 = test: as above; assay type: in vivo, BALB/c-nude mice; details: for TGI: SPC-Al
Procedure: as §4

CALU-3 = test: as above; assay type: in vivo, BALB/c-nude mice
Procedure: as §4

[4] = tested on: SKOV3 human ovarian cancer cells; test: Cell binding and endocytosis by flow cytometry; assay type: cell-based; details: 8 nmol/L, 37° C., 15-90 minutes, compared with DU145 and NCI-H460
Procedure: (§5) Sample information: Cy5-pep-20AK and Cy5-pep-20BK Cell lines: LNCaP human prostate cancer cells, Du145 human prostate cancer cells, SKOV3 human ovarian cancer cells and NCI-H460 human lung cancer cells
(§6) (1) Cell culture: the cells were digested with trypsin, collected and counted, and then the cells were added to several culture flasks containing a complete medium; the culture flasks were placed in an incubator at 37° C., 5% CO2 for culturing the cells, and finally about 5×10^6 cells were collected into a centrifuge tube. […]
(§7) (3) Washing and loading: the working solution was removed by centrifugation at 1000 rpm for 5 minutes, and the cells were washed 3 times with PBS, and an appropriate amount of PBS was added to suspend the cells to 1×10^6 cells/ml; Beckman CytoFLEX flow cytometer was turned on in advance to complete the startup cleaning process; and the cell samples were loaded successively, and the fluorescence of 10,000 living cells was read in the APC channel; all operations were performed avoiding light exposure.
(§8) (4) Data analysis: the absolute MFI (mean fluorescence intensity) of the APC fluorescence of each cell sample and the relative MFI of the relative blank control were obtained, and a data line graph was completed according to the relative MFI.

[5] = tested on: LNCaP human prostate cancer cells; test: Cell binding and endocytosis by flow cytometry; assay type: cell-based; details: 8 nmol/L, 37° C., 15-90 minutes, compared with DU145 and NCI-H460
Procedure: as §5, §6, §7, §8

Structure (SMILES) | IC50 [1] [nM] | IC50 [2] [nM] | IC50 [3] [nM] | anti-tumor growth effect (in words) (SCLC-21H; SCLC-21H CDX) | TGI (SCLC-21H; SCLC-21H, 50 mg/kg q2/w * 3) [%] | anti-tumor growth effect (in words) (SPC-A1; SPC-A1 CDX) | TGI (SPC-A1; 50 mg/kg q2/w * 3) [%] | TGI (SPC-A1; 100 mg/kg q2/w * 3) [%] | TGI (CALU-3; CALU-3, 50 mg/kg q2/w * 3) [%] | anti-tumor growth effect (in words) (CALU-3; CALU-3 CDX) | binding and endocytosis (fluorescence intensity) [4] | binding and endocytosis (fluorescence intensity) [5]
CC[C@@]1(O)C(=O)OCc2c1cc1n(c2=O)Cc2c-1nc1cc(F)c(C)c3c1c2[C@@H](NC(=O)COCNC(=O)CNC(=O)[C@H](Cc1ccccc1)NC(=O)CNC(=O)CNC(=O)CCCCCN1C(=O)CC(SC[C@H](NC(=O)[C@H](CCCCN)NC(=O)[C@H](CC(=O)O)NC(=O)[C@H](CC(=O)O)NC(=O)Cc2ccc(CNC(=O)NCCCC[C@H](NC(=O)N[C@@H](CCC(=O)O)C(=O)O)C(=O)O)cc2)C(=O)N[C@@H](CCCCNC(=O)CC[C@H](NC(=O)c2ccc(NCc4cnc5[nH]c(N)nc(=O)c5n4)cc2)C(=O)O)C(N)=O)C1=O)CC3 (stereo partly drawn) [CR19428] | 906 | 1620 | 1070 | obvious anti-tumor growth effect | 66 | obvious anti-tumor growth effect | 75 | 91 | 51 | obvious anti-tumor growth effect | – | –
CC1(C)C(/C=C/C=C/C=C2\N(CCCCCC(=O)NCCCCC(NC(=O)[C@H](CCCCN)NC(=O)[C@H](CC(=O)O)NC(=O)[C@H](CC(=O)O)NC(=O)Cc3ccc(CNC(=O)NCCCC[C@H](NC(=O)N[C@@H](CCC(=O)O)C(=O)O)C(=O)O)cc3)C(N)=O)c3ccc(S(=O)(=O)[O-])cc3C2(C)C)=[N+](CCCS(=O)(=O)O)c2ccc(S(=O)(=O)O)cc21 (stereo partly drawn) [Cy5-pep-20AK] | – | – | – | – | – | – | – | – | – | – | moderate level of binding and endocytosis | high level of binding and endocytosis

Reference: patent publication US20220175761A1, “BI-LIGAND DRUG CONJUGATE AND USE THEREOF” (COHERENT BIOPHARMA (SUZHOU), LIMITED, priority 2019, published 2022)
